From US12285034B2, “Human and non-human animal use of microbial anaplerotic oil” (HELIAE DEVELOPMENT, LLC, priority 2017, dated 2025)
Like-named read-outs stand apart in the source and are kept apart here.

Columns and labels:
Assay type in all cases: cell-based
[1] = system: Aurantiochytrium acetophilum HS399; assay: Growth on propionate as sole carbon source (Example 9); conditions: 10 g/L, pH 7
Text: FIG. 35 is a graphical representation of one implementation that illustrates results 3500 of growth of A. acetophilum HS399 with different carbon sources.

[2] = system: Aurantiochytrium acetophilum HS399; assay: Cyanocobalamin and propionate deposition, flask (Example 10); conditions: for Final Propionate: initial 3 g/L; for Cell dry weight: propionate 3 g/L
[3] = system: Aurantiochytrium acetophilum HS399; conditions: for OCFA / Total Fatty Acids / Total Lipids: harvest; for OCFA Productivity / Propionate deposition: 120 h
Procedure: Respective Erlenmeyer flasks (250 mL) are inoculated (1% v/v) in triplicates with a 24 h old culture of A. acetophilum HS399 and incubated in an orbital shaker at 180 rpm and 27° C.
Respective Erlenmeyer flasks contain 100 mL of a medium supplemented with (g/L): dextrose (100), ammonium acetate (4.6), NaCl (12.5), MgSO4 7H2O (2.5), KH2PO4 (0.5), KCl (0.5) and CaCl2 (0.1). This medium also contains trace element solution (5 ml/L) and vitamin solution (1 ml/L). The trace element solution contains (g/L): EDTA di-sodium salt (6), FeCl3 6H2O (0.29), […] (6.84), MnCl2 4H2O (0.86), ZnCl2 (0.06), CoCl2 6H2O (0.026), NiSO4 6H2O (0.052), CuSO4 5H2O (0.002), Na2MoO4H2O (0.005). The vitamin solution contains (mg/L): thiamine (100), biotin (0.5) and cyanocobalamin (0.5).
In this example, respective culture materials are autoclaved (e.g., 121° C., 15 min) and the media is filter sterilized before use. […] Daily samples are collected to analyze the cell dry weight, residual glucose, culture pH (see FIG. 15), and lipid and fatty acid composition of the cultures. Cell dry weights are analyzed by filtration (e.g., 0.2 μm filter media) using a vacuum and washed with a solution of ammonium bicarbonate. Residual glucose is analyzed using a colorimetric method based on glucose […] activity. Biomass for lipid analysis is centrifuged and washed using purified water. The washed biomass is freeze dried. Total lipids are analyzed using Folch method (AOAC 996.06) and the FAMES are analyzed by gas chromatography and flame ionization detection using nonadecanoic (C19:0) acid as an internal standard.

[4] = system: Yarrowia lipolytica ATCC18944; conditions: for Total Fatty Acids / Total Lipids: 168 h
Procedure: Culture conditions. In one implementation, Yarrowia lipolytica ATCC18944 can be cultivated in triplicates (n=3) in a medium containing (g/L): glycerol (80), monosodium […]), yeast extract (1), NaCl (12.5), MgSO4 (7), H2O (2.5), KCl (0.5), CaCl2 (0.1), KH2PO4 (0.5), trace metal solution (5 mL) and vitamin solution (1 mL). The trace element solution may contain (g/L): […] The vitamin solution can be filter-sterilized (e.g., using 0.2 μm pore size filter) containing (mg L-1): thiamine (100), biotin (0.5) and cyanocobalamin (0.5) unless otherwise stated. In some implementations cyanocobalamin might be added to or subtracted from the medium formulation to change or impact propionic acid deposition in OCFA. […] In one implementation, a concentration of the cyanocobalamin and/or cobalt in the culture medium can be below 0.4 μM. […] The flasks can be incubated in the dark in an orbital shaker at 180 rpm, 27° C. In this implementation, sodium propionate is fed batch every day according to respective treatments. […] Analyses. Cell dry weights can be obtained by drying samples that are previously vacuum filtrated (e.g., using 0.2 μm pore size filters). Residual propionate is analyzed directly by high performance liquid chromatography (HPLC). Lipids and total fatty acids are analyzed using a direct extraction, transesterification followed by gas chromatography (GC) and detection by flame ionization (FID). The different fatty acids are identified and quantified using appropriate internal and external standards. Propionic acid deposition rate.

[5] = system: Aurantiochytrium acetophilum HS399; assay: Propionate concentration and OCFA titers, flask (Example 13); conditions: 96 h
Text: The trace element solution contains (g/L): […] The vitamin solution contains (mg/L): thiamine (100) and biotin (0.5). […] The washed biomass is freeze dried.

[6] = propionate 0 + 1 + 1 + 1 g/L (Day 5)
[7] = propionate 0 + 2 + 2 + 2 g/L (Day 5)
[8] = propionate 0 + 3 g/L (Day 5), listed as propionate
[9] = propionate 3 g/L (Day 5), listed as propionate
[10] = daily propionate 0+0+1+1+1+1 g/L
[11] = daily propionate 0+0+2+2+2+2 g/L
[12] = 192 h, itaconic acid 0 / propionate 6 g/L

What does the source list for `CCC(=O)O` [Propionate, propionic acid]?
growth on propionate as sole carbon source [1]: did not support growth above that of the starved treatment; Propionate deposition ([2]; cyanocobalamin 0 μM, listed as Propionic acid): 99.9 ± 5.8 % fed; Propionate deposition ([2]; cyanocobalamin 0 μM, listed as propionate): 99.5 % fed; Propionate deposition ([2]; cyanocobalamin 0.00037 μM): 47.0 ± 0.9 % fed; Propionate deposition ([2]; cyanocobalamin 0.37 μM): 10.3 ± 1.0 % fed; Final Propionate ([2]; cyanocobalamin 0 μM): 0.36 g/L; Final Propionate ([2]; cyanocobalamin 0.00037 μM): 0.1 g/L; Final Propionate ([2]; cyanocobalamin 0.37 μM): 0.06 g/L; Cell dry weight ([2]; cyanocobalamin 0 μM): 35.0 ± 1.2 g/L; Cell dry weight ([2]; cyanocobalamin 0.00037 μM): 32.0 ± 0.7 g/L; Cell dry weight ([2]; cyanocobalamin 0.37 μM): 37.0 ± 1.4 g/L; residual concentration giving some growth inhibition [3]: 1 g/L; increase of OCFAs productivity by feeding propionate merely during lipogenesis ([3]; P3 vs P0+3): approximately 20%; OCFA ([3]; propionate 0 + 1 + 1 + 1 g/L): 29.2 ± 0.4 % TFA; Total Fatty Acids ([3]; propionate 0 + 1 + 1 + 1 g/L): 67.2 ± 5.0 % DW; Total Lipids ([3]; propionate 0 + 1 + 1 + 1 g/L): 79.7 ± 0.6 % DW; OCFA ([3]; propionate 0 + 2 + 2 + 2 g/L): 53.5 ± 0.8 % TFA; Total Fatty Acids ([3]; propionate 0 + 2 + 2 + 2 g/L): 63.5 ± 1.6 % DW; Total Lipids ([3]; propionate 0 + 2 + 2 + 2 g/L): 76.0 ± 1.0 % DW; Total Fatty Acids ([3]; propionate 0 + 3 g/L): 66.0 ± 2.2 % DW; Total Lipids ([3]; propionate 0 + 3 g/L): 79.5 ± 0.5 % DW; OCFA ([3]; propionate 0 + 3 g/L (P0+3)): 27.6 ± 0.1 % TFA; OCFA ([3]; propionate 0 + 3 g/L (P0+3), listed as propionate): 27.4 % TFA; OCFA ([3]; propionate 3 g/L (P3)): 25.5 ± 0.2 % TFA; OCFA ([3]; propionate 3 g/L (P3), listed as propionate): 25.2 % TFA; Total Fatty Acids ([3]; propionate 3 g/L (day 0)): 64.8 ± 1.2 % DW; Total Lipids ([3]; propionate 3 g/L (day 0)): 78.0 ± 0.0 % DW; OCFA Productivity [3, 6]: 1.19 ± 0.03 g/L/day; Propionate deposition [3, 6]: 59.6 ± 1.4%; OCFA Productivity [3, 7]: 1.86 ± 0.04 g/L/day; Propionate deposition [3, 7]: 46.7 ± 0.9%; OCFA Productivity ([3]; propionate 0 + 3 g/L (Day 5)): 1.18 ± 0.02 g/L/day; Propionate deposition ([3]; propionate 0 + 3 g/L (Day 5)): 59.3 ± 1.1%; OCFA Productivity [3, 8]: 1.18 ± 0.02 g/L/day; Propionate deposition [3, 8]: 59.3±1.1%; OCFA Productivity ([3]; propionate 3 g/L (Day 5)): 1.04 ± 0.01 g/L/day; Propionate deposition ([3]; propionate 3 g/L (Day 5)): 52.2 ± 0.7%; OCFA Productivity [3, 9]: 1.18 ± 0.02 g/L/day; Propionate deposition [3, 9]: 52.2±0.7%; daily propionic feed not affecting growth [4]: up to 2 g/L d; Total Fatty Acids [4, 10]: 17.3 ± 1.6 % DW; Total Lipids [4, 10]: 19.0 ± 0.0 % DW; Total Fatty Acids [4, 11]: 16.2 ± 0.5 % DW; Total Lipids [4, 11]: 18.3 ± 0.6 % DW; Total Fatty Acids ([4]; daily propionate 0 + 0.6 g/L): 21.3 ± 2.8 % DW; Total Lipids ([4]; daily propionate 0 + 0.6 g/L): 21.7 ± 3.2 % DW; Total Fatty Acids ([4]; daily propionate 0.3 + 0.3 g/L): 21.7 ± 2.5 % DW; Total Lipids ([4]; daily propionate 0.3 + 0.3 g/L): 23.7 ± 3.5 % DW; Cell dry weight [4, 12]: 8.3 ± 1.2 g/L; Consumed propionate [4, 12]: 5.1 ± 1.5 g/L; Odd chain fatty acids [4, 12]: 1.3 ± 0.5 % DW; Propionic acid deposition [4, 12]: 0.6 ± 0.1%; growth on propionate as sole carbon source ([4]; FIG. 25): able to grow; Consumed propionate ([4]; cyanocobalamin 0 μM): 2.6 g/L; Propionate deposition ([4]; cyanocobalamin 0 μM): 0.99%; Consumed propionate ([4]; cyanocobalamin 0.00037 μM): 1.7 g/L; Propionate deposition ([4]; cyanocobalamin 0.00037 μM): 0.83%; Cell dry weight ([4]; propionate 0+0+2+2+2+2 g/L d, cyanocobalamin 0 μM): 6.0 g/L; Cell dry weight ([4]; propionate 0+0+2+2+2+2 g/L d, cyanocobalamin 0.00037 μM): 5.3 g/L; propionic acid deposition rates in OCFAs ([4]; relatively low): < 3 % TFA; OCFAs ([4]; total propionate fed batch 8 g/L): 0.33 g/L; OCFA ([5]; propionate 2 g/L): 30.7 ± 1.8 % TFA; Total Fatty Acids ([5]; propionate 2 g/L): 54.8 ± 5.6 % DW; OCFA ([5]; propionate 3 g/L): 50.8 ± 1.1 % TFA; Total Fatty Acids ([5]; propionate 3 g/L): 56.2 ± 0.6 % DW; OCFA ([5]; propionate 4 g/L): 63.0 ± 2.5 % TFA; Total Fatty Acids ([5]; propionate 4 g/L): 39.2 ± 12.4 % DW; OCFA ([5]; propionate 5 g/L): 64.6 ± 0.3 % TFA; Total Fatty Acids ([5]; propionate 5 g/L): 41.0 ± 3.4 % DW
